This test addresses T1, glucagon receptor (Homo sapiens, UniProt P47871).
T1 construct: expressed in transfected cells
The test can be described thus: Assay (I) Glucagon activity (cAMP biosensor, FLIPR). In kind it is cell-based. The following applies: HEK-293 cells with cloned glucagon receptor and cAMP biosensor; end point after 6 minutes. The method in brief:
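HEK-293 cells expressing glucagon receptor with membrane cAMP biosensor (ACTOne), calcium-dye loaded with probenecid and a PDE inhibitor.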

pEC50: −log10 of the molar value. *1 amine or outer side, *2 acyl side, *3 side chain or, on linkers, in order; H or OH if unused. Where a SMILES comes first, the peptide text is derived from it. Side-chain parts run from the residue outwards. γGlu = O=C(O)[C@H](CCC(=O)[*:2])N[*:1]

T1 sequence (P47871 26-477): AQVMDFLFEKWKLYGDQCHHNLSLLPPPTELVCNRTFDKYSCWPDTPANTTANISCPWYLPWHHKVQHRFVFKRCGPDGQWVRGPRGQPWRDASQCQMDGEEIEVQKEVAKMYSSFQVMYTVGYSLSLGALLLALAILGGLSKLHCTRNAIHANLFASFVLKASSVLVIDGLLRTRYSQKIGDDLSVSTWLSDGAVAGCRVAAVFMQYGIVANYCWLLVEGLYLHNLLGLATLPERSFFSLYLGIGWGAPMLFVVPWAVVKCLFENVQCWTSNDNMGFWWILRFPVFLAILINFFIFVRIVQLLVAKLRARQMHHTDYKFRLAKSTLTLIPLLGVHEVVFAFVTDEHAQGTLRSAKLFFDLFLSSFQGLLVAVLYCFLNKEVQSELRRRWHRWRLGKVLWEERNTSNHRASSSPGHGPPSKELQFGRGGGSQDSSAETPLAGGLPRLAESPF

In turn, `CC(=O)N[C@@H](CCC(=O)N[C@@H](CCC(=O)N[C@@H](CCC(=O)N[C@@H](CCC(=O)NCCCC[C@H](NC(=O)[C@@H](NC(=O)[C@H](Cc1ccccc1)NC(=O)[C@H](CC(=O)O)NC(=O)[C@H](C)NC(=O)[C@H](C)NC(=O)[C@H](CCCNC(=N)N)NC(=O)[C@H](CCCNC(=N)N)NC(=O)[C@H](CC(C)C)NC(=O)[C@H](CC(=O)O)NC(=O)[C@H](CC(C)C)NC(=O)[C@H](Cc1ccc(O)cc1)NC(=O)[C@H](CCCNC(=N)N)NC(=O)[C@H](CO)NC(=O)[C@H](Cc1ccc(O)cc1)NC(=O)[C@H](CC(=O)O)NC(=O)[C@H](CO)NC(=O)[C@@H](NC(=O)[C@H](Cc1ccccc1)NC(=O)[C@@H](NC(=O)CNC(=O)[C@H](CCC(N)=O)NC(=O)[C@H](CO)NC(=O)[C@@H](N)Cc1c[nH]cn1)[C@@H](C)O)[C@@H](C)O)C(C)C)C(=O)N[C@@H](Cc1c[nH]c2ccccc12)C(=O)N[C@@H](CC(C)C)C(=O)N[C@@H](CC(C)C)C(=O)N[C@@H](CO)C(=O)N[C@H](C(=O)O)[C@@H](C)O)C(=O)O)C(=O)O)C(=O)O)C(=O)O` [Example 56, N^ε24-[(4S)-4-[[(4S)-4-[[(4S)-4-[[(4S)-4-acetamido-4-carboxybutanoyl]amino]-4-carboxybutanoyl]amino]-4-carboxybutanoyl]amino]-4-carboxybutanoyl]-[Arg^12,Leu^16,Ala^20,Lys^24,Leu^27,Ser^28]-Glucagon] (H-HSQGTFTSDYSRYLDLRRAADFVK([γGlu-γGlu-γGlu-γGlu-Ac])WLLST-OH) showed a pEC50 of 10.70.

`CC(=O)N[C@@H](CCC(=O)N[C@@H](CCC(=O)N[C@@H](CCC(=O)N[C@@H](CCC(=O)NCCCC[C@H](NC(=O)[C@@H](NC(=O)[C@H](Cc1ccccc1)NC(=O)[C@H](CC(=O)O)NC(=O)[C@H](CCC(N)=O)NC(=O)[C@H](C)NC(=O)[C@H](CCCNC(=N)N)NC(=O)[C@H](CCCNC(=N)N)NC(=O)[C@H](CC(C)C)NC(=O)[C@H](CC(=O)O)NC(=O)[C@H](CC(C)C)NC(=O)[C@H](Cc1ccc(O)cc1)NC(=O)[C@H](CCCCN)NC(=O)[C@H](CO)NC(=O)[C@H](Cc1ccc(O)cc1)NC(=O)[C@H](CC(=O)O)NC(=O)[C@H](CO)NC(=O)[C@@H](NC(=O)[C@H](Cc1ccccc1)NC(=O)[C@@H](NC(=O)CNC(=O)[C@H](CCC(N)=O)NC(=O)[C@H](CO)NC(=O)[C@@H](N)Cc1c[nH]cn1)[C@@H](C)O)[C@@H](C)O)C(C)C)C(=O)N[C@@H](Cc1c[nH]c2ccccc12)C(=O)N[C@@H](CC(C)C)C(=O)N[C@@H](CC(C)C)C(=O)N[C@@H](CO)C(=O)N[C@H](C(=O)O)[C@@H](C)O)C(=O)O)C(=O)O)C(=O)O)C(=O)O` [Example 38, N^ε24-[(4S)-4-[[(4S)-4-[[(4S)-4-[[(4S)-4-acetamido-4-carboxybutanoyl]amino]-4-carboxybutanoyl]amino]-4-carboxybutanoyl]amino]-4-carboxybutanoyl]-[Leu16,Lys24,Leu27,Ser28]-Glucagon]: the pEC50 was 11.54. For `CC(=O)N[C@@H](CCC(=O)N[C@@H](CCC(=O)N[C@@H](CCC(=O)N[C@@H](CCC(=O)NCCCC[C@H](NC(=O)[C@@H](NC(=O)[C@H](Cc1ccccc1)NC(=O)[C@H](CC(=O)O)NC(=O)[C@H](CCC(N)=O)NC(=O)[C@H](C)NC(=O)[C@H](CCCNC(=N)N)NC(=O)[C@H](CCCNC(=N)N)NC(=O)[C@@H](NC(=O)[C@H](CC(=O)O)NC(=O)[C@H](CC(C)C)NC(=O)[C@H](Cc1ccc(O)cc1)NC(=O)[C@H](CCCCN)NC(=O)[C@H](CO)NC(=O)[C@H](Cc1ccc(O)cc1)NC(=O)[C@H](CC(=O)O)NC(=O)[C@H](CO)NC(=O)[C@@H](NC(=O)[C@H](Cc1ccccc1)NC(=O)[C@@H](NC(=O)CNC(=O)[C@H](CCC(N)=O)NC(=O)[C@H](CO)NC(=O)[C@@H](N)Cc1c[nH]cn1)[C@@H](C)O)[C@@H](C)O)C(C)C)C(C)C)C(=O)N[C@@H](Cc1c[nH]c2ccccc12)C(=O)N[C@@H](CC(C)C)C(=O)N[C@@H](CC(C)C)C(=O)N[C@@H](CC(N)=O)C(=O)N[C@H](C(=O)O)[C@@H](C)O)C(=O)O)C(=O)O)C(=O)O)C(=O)O` [Example 16, N^ε24-[(4S)-4-[[(4S)-4-[[(4S)-4-[[(4S)-4-acetamido-4-carboxybutanoyl]amino]-4-carboxybutanoyl]amino]-4-carboxybutanoyl]amino]-4-carboxybutanoyl]-[Val16,Lys24,Leu27]-Glucagon] the value was 11.19. In turn, `CC(=O)N[C@@H](CCC(=O)N[C@@H](CCC(=O)N[C@@H](CCC(=O)N[C@@H](CCC(=O)NCCCC[C@H](NC(=O)[C@@H](NC(=O)[C@H](Cc1ccccc1)NC(=O)[C@H](CC(=O)O)NC(=O)[C@H](CCC(N)=O)NC(=O)[C@H](C)NC(=O)[C@H](CCCNC(=N)N)NC(=O)[C@H](CCCNC(=N)N)NC(=O)[C@@H](NC(=O)[C@H](CC(=O)O)NC(=O)[C@H](CC(C)C)NC(=O)[C@H](Cc1ccc(O)cc1)NC(=O)[C@H](CCCCN)NC(=O)[C@H](CO)NC(=O)[C@H](Cc1ccc(O)cc1)NC(=O)[C@H](CC(=O)O)NC(=O)[C@H](CO)NC(=O)[C@@H](NC(=O)[C@H](Cc1ccccc1)NC(=O)[C@@H](NC(=O)CNC(=O)[C@H](Cc1c[nH]cn1)NC(=O)[C@H](CO)NC(=O)[C@@H](N)Cc1c[nH]cn1)[C@@H](C)O)[C@@H](C)O)[C@@H](C)O)C(C)C)C(=O)N[C@@H](Cc1c[nH]c2ccccc12)C(=O)N[C@@H](CC(C)C)C(=O)N[C@@H](CC(C)C)C(=O)N[C@@H](CO)C(=O)N[C@H](C(=O)O)[C@@H](C)O)C(=O)O)C(=O)O)C(=O)O)C(=O)O` [Example 32, N^ε24-[(4S)-4-[[(4S)-4-[[(4S)-4-[[(4S)-4-acetamido-4-carboxybutanoyl]amino]-4-carboxybutanoyl]amino]-4-carboxybutanoyl]amino]-4-carboxybutanoyl]-[His3,Thr16,Lys24,Leu27,Ser28]-Glucagon] (H-HSHGTFTSDYSKYLDTRRAQDFVK([γGlu-γGlu-γGlu-γGlu-Ac])WLLST-OH) had a pEC50 of 11.05. Then `CC[C@H](C)[C@H](NC(=O)[C@H](CC(=O)O)NC(=O)[C@H](CC(C)C)NC(=O)[C@H](Cc1ccc(O)cc1)NC(=O)[C@H](CCCCN)NC(=O)[C@H](CO)NC(=O)[C@H](Cc1ccc(O)cc1)NC(=O)[C@H](CC(=O)O)NC(=O)[C@H](CO)NC(=O)[C@@H](NC(=O)[C@H](Cc1ccccc1)NC(=O)[C@@H](NC(=O)CNC(=O)[C@H](CCC(N)=O)NC(=O)[C@H](CO)NC(=O)[C@@H](N)Cc1c[nH]cn1)[C@@H](C)O)[C@@H](C)O)C(=O)N[C@@H](CCCNC(=N)N)C(=O)N[C@@H](CCCNC(=N)N)C(=O)N[C@@H](C)C(=O)N[C@@H](CCC(N)=O)C(=O)N[C@@H](CC(=O)O)C(=O)N[C@@H](Cc1ccccc1)C(=O)N[C@H](C(=O)N[C@@H](CCCCNC(=O)CC[C@H](NC(=O)CC[C@H](NC(=O)CC[C@H](NC(=O)CC[C@H](NC(C)=O)C(=O)O)C(=O)O)C(=O)O)C(=O)O)C(=O)N[C@@H](Cc1c[nH]c2ccccc12)C(=O)N[C@@H](CC(C)C)C(=O)N[C@@H](CC(C)C)C(=O)N[C@@H](CO)C(=O)N[C@H](C(=O)O)[C@@H](C)O)C(C)C` [Example 36, N^ε24-[(4S)-4-[[(4S)-4-[[(4S)-4-[[(4S)-4-acetamido-4-carboxybutanoyl]amino]-4-carboxybutanoyl]amino]-4-carbox[…]ybutanoyl]amino]-4-carboxybutanoyl]-[Ile16,Lys24,Leu27,Ser28]-Glucagon], with 11.60.

Values taken from patent US20140031278A1, “Novel Glucagon Analogues” (NOVO NORDISK A/S, priority 2011, published 2014).
